Results reported in patent publication US12016858B2, “Methods for the treatment of abnormal involuntary movement disorders” (AUSPEX PHARMACEUTICALS, INC., priority 2015, dated 2024).

Tested on: motor and phonic tics of TS
Test: Open-label pilot study of safety and efficacy in TS patients
Format: in vivo, human
Set-up: key to VTSS, Mean / TTS, Mean / GSS, Mean / MTSS, Median / TTS, Median / GSS, Median / MTSS change, Mean / VTSS change, Mean / TTS change, Mean / MTSS change, Median / VTSS change, Median / TTS change, Median: Yale Global Tic Severity Scale (YGTSS) scores
Text: An open-label, pilot study was undertaken 1) to evaluate the safety and tolerability of treatment with deutetrabenazine, and 2) to evaluate the efficacy of deutetrabenazine to suppress the motor and phonic tics of TS. Study Design. Inclusion criteria (at screening, unless otherwise indicated) included: 12 to 18 years of age, inclusive; […] Throughout the study, an independent rater assessed tic severity with the Yale Global Tic Severity Scale (YGTSS) and tic impact with the TS-Clinical Global Impression (TS-CGI) scale. The independent rater will not have knowledge of the subject's clinical care, including medications or reports of adverse events (AEs). Dose regimen. Study drug was available in five dose strengths: 6, 9, 12, 15, and 18 mg, all of which were identical in size, shape, and color (white). […] Subjects then maintained that dose level for the duration of the treatment period. Subjects who were receiving CBIT (Comprehensive Behavioral Intervention for Tics) therapy were permitted to participate as long as therapy had been stable/ongoing for at least 4 weeks before Screening and was expected to be stable for the duration of the trial. Study drug was dosed as follows. All treatment doses were administered with meals. A daily dose of 6 mg was given once a day in the morning, and daily doses of 12 mg and higher were administered twice daily in divided doses, approximately 10 hours apart during the day. The starting dose was deutetrabenazine 6 mg in the AM. The dose of study drug was optionally adjusted weekly in increments of 6 mg/day during the titration period to identify a dose level that suppressed tics and was well tolerated. Dose reductions were in increments of 6 mg/day. In this study, the maximum total daily dose of deutetrabenazine at the Week 5 visit or later was 36 mg (18 mg twice daily [BID]). Titration period (6 weeks). […] Safety evaluations during titration included assessment of vital signs, monitoring for adverse events, and rating scales for depression and suicidal ideation and behavior. In-person study visits were scheduled at Weeks 2 and 4 after initiating therapy and telephone contacts were scheduled for Weeks 1, 3, 5, and 6 after initiating therapy in order to assess tic suppression and adverse events. The YGTSS and TS-CGI were assessed by an independent rater. The Investigator, in consultation with the subject and parent/guardian, determined when an adequate level of tic suppression had been achieved. The dose of deutetrabenazine was increased on a weekly basis until there was adequate suppression of tics, the subject experienced a protocol-defined “clinically significant” AE (defined as an AE that is related to study medication and either (1) moderate or severe in intensity or (2) meets the criteria for a serious adverse event [SAE]), or the maximal allowable dose was reached. Although dose adjustments could made up to and including the Week 5 phone call, if a stable dose was reached before then, the subject continued on that dose for the remainder of the titration period and throughout maintenance dosing. Once adequate suppression of tics had been achieved, the dose of study drug was not increased further. If a subject experienced a “clinically significant” AE that was attributed to study drug, the Investigator used his or her judgment to determine if a dose reduction or suspension was necessary. Dose adjustments were to be made based on all available information, including the subject and parent/guardian reports of AEs and tic suppression, the clinical assessment of safety and efficacy by the Investigator, as well as information from rating scales. At the end of the titration period, the subject's dose was established for the maintenance period. Maintenance period (2 weeks). Subjects continued to receive their maintenance dose over the next 2 weeks, although dose reductions for AEs were allowed. […]

SMILES: [2H]C([2H])([2H])Oc1cc2c(cc1OC([2H])([2H])[2H])C1CC(=O)C(CC(C)C)CN1CC2 (stereo not drawn) [deutetrabenazine, (RR, SS)-1,3,4,6,7,11b-hexahydro-9,10-di(methoxy-d3)-3-(2-methylpropyl)-2H-benzo[a]quinolizin-2-one]
- TS-CGI mean score (Week 8, from a baseline of 4.7, 7 point scale, lower is better): 3.7
- GSS, Mean (Wk 2): 59.4
- GSS, Median (Wk 2): 57
- MTSS, Mean (Wk 2): 15.9
- MTSS, Median (Wk 2): 16
- TTS, Mean (Wk 2): 29.4
- TTS, Median (Wk 2): 28
- VTSS, Mean (Wk 2): 13.5
- VTSS, Median (Wk 2): 14
- GSS, Mean (Wk 4): 51.1
- GSS, Median (Wk 4): 51
- MTSS, Mean (Wk 4): 14.2
- MTSS, Median (Wk 4): 14
- TTS, Mean (Wk 4): 26.3
- TTS, Median (Wk 4): 27
- VTSS, Mean (Wk 4): 12.1
- VTSS, Median (Wk 4): 12
- GSS, Mean (Wk 8): 45.1
- GSS, Median (Wk 8): 47
- Impairment, Mean (Wk 8): 22.9
- Impairment, Median (Wk 8): 20
- MTSS, Mean (Wk 8): 12.0
- MTSS, Median (Wk 8): 11
- TTS, Mean (Wk 8): 21.2
- TTS, Median (Wk 8): 23
- VTSS, Mean (Wk 8): 9.2
- VTSS, Median (Wk 8): 9
- GSS, Mean (Wk 9 (washout)): 51.7
- GSS, Median (Wk 9 (washout)): 51
- MTSS, Mean (Wk 9 (washout)): 13.9
- MTSS, Median (Wk 9 (washout)): 14.5
- TTS, Mean (Wk 9 (washout)): 25.6
- TTS, Median (Wk 9 (washout)): 26
- VTSS, Mean (Wk 9 (washout)): 11.7
- VTSS, Median (Wk 9 (washout)): 10.5
- PGIC mean improvement (after 8 weeks of treatment, 7-point scale, preliminary): 1.8 points
- patients much or very much improved (PGIC) (after 8 weeks of treatment, preliminary): about 75%
- motor and vocal tics (FIG. 9) (baseline through week 8): lowered (improved) both motor and vocal tics
- GSS change, Mean (Δ B-Wk 2): −7.7
- GSS change, Median (Δ B-Wk 2): 0
- MTSS change, Mean (Δ B-Wk 2): −1.9
- MTSS change, Median (Δ B-Wk 2): 0
- TTS change, Mean (Δ B-Wk 2): −2.9
- TTS change, Median (Δ B-Wk 2): 0
- VTSS change, Mean (Δ B-Wk 2): −1.0
- VTSS change, Median (Δ B-Wk 2): 0
- GSS change, Mean (Δ B-Wk 9): −14.7
- GSS change, Median (Δ B-Wk 9): −10.5
- MTSS change, Mean (Δ B-Wk 9): −3.4
- MTSS change, Median (Δ B-Wk 9): −3
- TTS change, Mean (Δ B-Wk 9): −6.3
- TTS change, Median (Δ B-Wk 9): −5
- VTSS change, Mean (Δ B-Wk 9): −2.9
- VTSS change, Median (Δ B-Wk 9): −2.5
